According to patent publication US20230265151A1, “GIP/GLP1 CO-AGONIST COMPOUNDS” (priority 2020, published 2023):
Read-outs that look alike come from different tables or passages of the source.

Assays:
Format in all cases: cell-based
[1] = biological target: T1, hGIPR (Homo sapiens, UniProt P48546); experiment: Functional cAMP formation (HTRF) in HEK-293 clonal cells expressing hGIPR, 0.1% bovine casein, without or with 1.0% human serum albumin; conditions: for EC50: cAMP, 0.1% bovine casein (no human serum albumin), geometric mean
T1 construct: expressed in transfected cells
T1 sequence (P48546 22-466): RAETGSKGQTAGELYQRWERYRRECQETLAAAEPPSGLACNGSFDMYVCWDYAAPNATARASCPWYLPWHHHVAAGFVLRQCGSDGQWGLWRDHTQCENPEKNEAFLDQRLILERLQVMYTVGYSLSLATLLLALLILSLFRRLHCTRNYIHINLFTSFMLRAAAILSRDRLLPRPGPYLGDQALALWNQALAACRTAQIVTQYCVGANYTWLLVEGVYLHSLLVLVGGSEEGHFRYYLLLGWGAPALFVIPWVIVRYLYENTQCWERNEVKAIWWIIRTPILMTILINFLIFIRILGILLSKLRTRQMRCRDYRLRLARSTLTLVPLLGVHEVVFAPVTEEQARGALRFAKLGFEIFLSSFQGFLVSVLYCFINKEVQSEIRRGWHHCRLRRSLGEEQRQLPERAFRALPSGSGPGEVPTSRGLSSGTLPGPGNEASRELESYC
Method in brief: (§1)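 Readings of the HTRF 665/620 nm ratio, which falls as cAMP rises, were converted to nM cAMP using a standard curve after 30 min peptide exposure at 37° C.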

[2] = biological target: T2, hGCGR (Homo sapiens, UniProt P47871); experiment: Functional cAMP formation (HTRF) in HEK-293 clonal cells expressing hGCGR, 0.1% bovine casein, without or with 1.0% human serum albumin
T2 construct: expressed in transfected cells
T2 sequence (P47871 26-477): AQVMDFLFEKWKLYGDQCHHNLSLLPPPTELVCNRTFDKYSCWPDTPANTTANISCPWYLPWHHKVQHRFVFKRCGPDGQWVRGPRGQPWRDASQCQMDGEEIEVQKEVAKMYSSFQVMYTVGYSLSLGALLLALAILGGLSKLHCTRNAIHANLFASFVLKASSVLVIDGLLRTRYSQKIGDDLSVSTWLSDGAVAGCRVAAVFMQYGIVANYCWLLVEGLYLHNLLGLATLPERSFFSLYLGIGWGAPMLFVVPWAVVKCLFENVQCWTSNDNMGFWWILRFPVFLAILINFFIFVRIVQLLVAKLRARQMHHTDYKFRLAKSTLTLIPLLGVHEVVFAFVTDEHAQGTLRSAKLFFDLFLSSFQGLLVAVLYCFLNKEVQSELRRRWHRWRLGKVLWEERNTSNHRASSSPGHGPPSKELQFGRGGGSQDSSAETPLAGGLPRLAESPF
Method in brief: as §1

[3] = biological target: hGLP-1R (Homo sapiens, UniProt P43220); experiment: Functional cAMP formation (HTRF) in HEK-293 clonal cells expressing hGLP-1R, 0.1% bovine casein, without or with 1.0% human serum albumin; design: expressed in transfected cells; conditions: for EC50: geometric mean
hGLP-1R, sequence (P43220 24-463): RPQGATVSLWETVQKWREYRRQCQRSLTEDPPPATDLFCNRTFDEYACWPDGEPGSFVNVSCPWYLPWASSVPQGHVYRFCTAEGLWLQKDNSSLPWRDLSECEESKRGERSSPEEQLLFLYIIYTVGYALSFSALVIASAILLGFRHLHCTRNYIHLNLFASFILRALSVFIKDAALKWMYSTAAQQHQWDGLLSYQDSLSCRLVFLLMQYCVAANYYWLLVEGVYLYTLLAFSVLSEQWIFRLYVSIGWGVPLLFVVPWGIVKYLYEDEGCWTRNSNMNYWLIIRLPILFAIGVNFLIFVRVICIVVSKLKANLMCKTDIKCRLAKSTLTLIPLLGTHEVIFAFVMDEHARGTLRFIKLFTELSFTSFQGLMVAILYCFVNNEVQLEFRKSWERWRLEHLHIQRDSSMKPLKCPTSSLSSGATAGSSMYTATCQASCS
Method in brief: as §1

[4] = HEK293, read-out: hGIPR Emax, % ± SEM, percent of maximal response to GIP(1-42)NH2, 37° C., 0.1% bovine casein, arithmetic mean
[5] = hGCGR EC50, nM (SEM, n), cAMP, incubated at 37° C., 0.1% bovine casein (no human serum albumin), geometric mean
[6] = hGLP-1R EC50, nM (SEM, n), cAMP, incubated at 37° C., 0.1% bovine casein (no human serum albumin)

Work on `CC[C@H](C)[C@H](NC(=O)[C@H](CC(C)C)NC(=O)[C@](C)(Cc1ccc(O)cc1)NC(=O)[C@H](CCCCNC(=O)COCCOCCNC(=O)COCCOCCNC(=O)CC[C@H](NC(=O)CCCCCCCCCCCCC(=O)O)C(=O)O)NC(=O)[C@@H](NC(=O)[C@H](Cc1ccccc1)NC(=O)[C@H](CCC(=O)O)NC(=O)C(C)(C)NC(=O)[C@H](CCC(N)=O)NC(=O)[C@H](C)NC(=O)[C@H](CCCCNC(=O)COCCOCCNC(=O)COCCOCCNC(=O)CC[C@H](NC(=O)CCCCCCCCCCCCC(=O)O)C(=O)O)NC(=O)[C@H](CCCN)NC(=O)[C@H](CC(=O)O)NC(=O)[C@H](CC(C)C)NC(=O)[C@](C)(CC(C)C)NC(=O)[C@@H](NC(=O)[C@H](CO)NC(=O)[C@@H](NC(=O)[C@H](CC(=O)O)NC(=O)[C@H](CO)NC(=O)[C@@H](NC(=O)[C@](C)(Cc1ccccc1F)NC(=O)[C@@H](NC(=O)CNC(=O)[C@H](CCC(=O)O)NC(=O)C(C)(C)NC(=O)[C@@H](N)Cc1ccc(O)cc1)[C@@H](C)O)[C@@H](C)O)C(C)C)[C@@H](C)CC)[C@@H](C)CC)C(=O)N[C@@H](CCC(=O)O)C(=O)NCC(=O)NCC(=O)N1CCC[C@H]1C(=O)N[C@@H](CO)C(=O)N[C@@H](CO)C(=O)NCC(=O)N[C@@H](C)C(=O)N1CCC[C@H]1C(=O)N1CCC[C@H]1C(=O)N1CCC[C@H]1C(=O)N[C@@H](CO)C(N)=O` [Example 114] yielded an Emax [1, 4] of 93.8%, an EC50 [2, 5] greater than 9950 nM and an Emax ([3]; HEK293, read-out: hGLP-1R Emax, % ± SEM, percent of maximal response to GLP-1(7-36)NH2, 37° C., 0.1% bovine casein, arithmetic mean) of 91.7%. For the same compound, the EC50 [3, 6] was 0.176 nM.

Compound `CC[C@H](C)[C@H](NC(=O)[C@H](CC(C)C)NC(=O)[C@](C)(Cc1ccc(O)cc1)NC(=O)[C@H](CCCCNC(=O)COCCOCCNC(=O)CCCCCCCNC(=O)CC[C@H](NC(=O)CCCCCCCCCOc1ccc(C(=O)O)cc1)C(=O)O)NC(=O)[C@@H](NC(=O)[C@H](Cc1ccccc1)NC(=O)[C@H](CCCN)NC(=O)C(C)(C)NC(=O)[C@H](CCC(N)=O)NC(=O)[C@H](C)NC(=O)[C@H](CCC(N)=O)NC(=O)[C@H](CCCN)NC(=O)[C@H](CC(=O)O)NC(=O)[C@H](CC(C)C)NC(=O)[C@](C)(CC(C)C)NC(=O)[C@@H](NC(=O)C(C)(C)NC(=O)[C@H](Cc1ccncc1)NC(=O)[C@H](CC(=O)O)NC(=O)[C@H](CO)NC(=O)[C@@H](NC(=O)[C@](C)(Cc1ccccc1F)NC(=O)[C@@H](NC(=O)CNC(=O)[C@H](CCC(=O)O)NC(=O)C(C)(C)NC(=O)[C@@H](N)Cc1ccc(O)cc1)[C@@H](C)O)[C@@H](C)O)[C@@H](C)CC)[C@@H](C)CC)C(=O)N[C@@H](CCCCNC(=O)COCCOCCNC(=O)CCCCCCCNC(=O)CC[C@H](NC(=O)CCCCCCCCCOc1ccc(C(=O)O)cc1)C(=O)O)C(=O)NCC(=O)NCC(=O)N1CCC[C@H]1C(=O)N[C@@H](CO)C(=O)N[C@@H](CO)C(=O)NCC(=O)N[C@@H](C)C(=O)N1CCC[C@H]1C(=O)N1CCC[C@H]1C(=O)N1CCC[C@H]1C(=O)N[C@@H](CO)C(N)=O` [Example 454] has an Emax ([1]; HEK293, read-out: hGIPR Emax, % ± SEM, cAMP, 37° C., 0.1% bovine casein and 1.0% human serum albumin, percent of maximal response to GIP(1-42)NH2) of 91.5%, an EC50 ([1]; hGIPR EC50, nM (SEM, n), 37° C.) of 0.0202 nM and an EC50 ([2]; hGCGR EC50, nM (SEM, n), cAMP, 37° C., 0.1% bovine casein (no human serum albumin), geometric mean) greater than 9950 nM. It also gave an EC50 ([2]; hGCGR EC50, nM (SEM, n), cAMP, 37° C., 0.1% bovine casein and 1.0% human serum albumin, geometric mean (SEM, n)) greater than 9950 nM, an Emax ([3]; HEK293, read-out: hGLP-1R Emax, % ± SEM, cAMP, 37° C., 0.1% bovine casein, percent of maximal response to GLP-1(7-36)NH2, arithmetic mean) of 114% and an EC50 ([3]; hGLP-1R EC50, nM (SEM, n), cAMP, 37° C., 0.1% bovine casein (no human serum albumin)) of 0.266 nM.

`CC[C@H](C)[C@H](NC(=O)[C@H](CCCN)NC(=O)[C@H](CC(=O)O)NC(=O)[C@H](CC(C)C)NC(=O)[C@](C)(CC(C)C)NC(=O)[C@@H](NC(=O)[C@H](CO)NC(=O)[C@H](Cc1ccc(OC)cc1)NC(=O)[C@H](CC(=O)O)NC(=O)[C@H](CO)NC(=O)[C@@H](NC(=O)[C@](C)(Cc1ccccc1F)NC(=O)[C@@H](NC(=O)CNC(=O)[C@H](CCC(=O)O)NC(=O)C(C)(C)NC(=O)[C@@H](N)Cc1ccc(O)cc1)[C@@H](C)O)[C@@H](C)O)[C@@H](C)CC)C(=O)N[C@@H](C)C(=O)N[C@@H](CCC(N)=O)C(=O)NC(C)(C)C(=O)N[C@@H](CCCCNC(=O)COCCOCCNC(=O)COCCOCCNC(=O)CC[C@H](NC(=O)CCCCCCCCCCCCC(=O)O)C(=O)O)C(=O)N[C@@H](Cc1ccccc1)C(=O)N[C@H](C(=O)N[C@H](CCC(=O)O)C(=O)N[C@@](C)(Cc1ccc(O)cc1)C(=O)N[C@@H](CC(C)C)C(=O)N[C@H](C(=O)N[C@@H](CCCCNC(=O)COCCOCCNC(=O)COCCOCCNC(=O)CC[C@H](NC(=O)CCCCCCCCCCCCC(=O)O)C(=O)O)C(=O)NCC(=O)NCC(=O)N1CCC[C@H]1C(=O)N[C@@H](CO)C(=O)N[C@@H](CO)C(=O)NCC(=O)N[C@@H](C)C(=O)N1CCC[C@H]1C(=O)N1CCC[C@H]1C(=O)N1CCC[C@H]1C(=O)N[C@@H](CO)C(N)=O)[C@@H](C)CC)[C@@H](C)CC` [Example 263] gave an Emax ([1]; HEK293, 0.1% bovine casein and 1.0% human serum albumin, 37° C., percent of maximal response to GIP(1-42)NH2, read-out: hGIPR Emax, % ± SEM) of 72.7%, an Emax ([1]; HEK293, cAMP, 37° C., 0.1% bovine casein, percent of maximal response to GIP(1-42)NH2, arithmetic mean, read-out: hGIPR Emax, % ± SEM) of 88.6% and an EC50 ([1]; 37° C., read-out: hGIPR EC50, nM (SEM, n)) of 0.0214 nM. It also gave an EC50 ([2]; 0.1% bovine casein and 1.0% human serum albumin, 37° C., geometric mean, read-out: hGCGR EC50, nM (SEM, n)) greater than 9950 nM, an EC50 ([2]; cAMP, 37° C., 0.1% bovine casein (no human serum albumin), geometric mean, read-out: hGCGR EC50, nM (SEM, n)) greater than 9950 nM and an EC50 ([3]; 0.1% bovine casein and 1.0% human serum albumin, 37° C., read-out: hGLP-1R EC50, nM (SEM, n)) of 56.7 nM. For the same compound, the Emax ([3]; HEK293, 0.1% bovine casein and 1.0% human serum albumin, 37° C., percent of maximal response to GLP-1(7-36)NH2, read-out: hGLP-1R Emax, % ± SEM) was 95.8%, the Emax ([3]; HEK293, cAMP, 37° C., 0.1% bovine casein, percent of maximal response to GLP-1(7-36)NH2, arithmetic mean, read-out: hGLP-1R Emax, % ± SEM) was 98.5% and the EC50 ([3]; cAMP, 37° C., 0.1% bovine casein (no human serum albumin), read-out: hGLP-1R EC50, nM (SEM, n)) was 0.294 nM.

Work on `CC[C@H](C)[C@H](NC(=O)[C@H](CC(C)C)NC(=O)[C@](C)(Cc1ccccc1)NC(=O)[C@H](CCCCNC(=O)COCCOCCNC(=O)COCCOCCNC(=O)CC[C@H](NC(=O)CCCCCCCCCCCCC(=O)O)C(=O)O)NC(=O)[C@@H](NC(=O)[C@](C)(Cc1ccccc1)NC(=O)[C@H](CCC(=O)O)NC(=O)C(C)(C)NC(=O)[C@H](CCC(N)=O)NC(=O)[C@H](C)NC(=O)[C@H](CCCCNC(=O)COCCOCCNC(=O)COCCOCCNC(=O)CC[C@H](NC(=O)CCCCCCCCCCCCC(=O)O)C(=O)O)NC(=O)[C@H](CCCN)NC(=O)[C@H](CC(=O)O)NC(=O)[C@H](CC(C)C)NC(=O)[C@](C)(CC(C)C)NC(=O)[C@@H](NC(=O)C(C)(C)NC(=O)[C@H](Cc1ccncc1)NC(=O)[C@H](CC(=O)O)NC(=O)[C@H](CO)NC(=O)[C@@H](NC(=O)[C@](C)(Cc1ccccc1F)NC(=O)[C@@H](NC(=O)CNC(=O)[C@H](CCC(=O)O)NC(=O)C(C)(C)NC(=O)[C@@H](N)Cc1ccc(O)cc1)[C@@H](C)O)[C@@H](C)O)[C@@H](C)CC)[C@@H](C)CC)C(=O)N[C@@H](CCC(=O)O)C(=O)NCC(=O)NCC(=O)N1CCC[C@H]1C(=O)N[C@@H](CO)C(=O)N[C@@H](CO)C(=O)NCC(=O)N[C@@H](C)C(=O)N1CCC[C@H]1C(=O)N1CCC[C@H]1C(=O)N1CCC[C@H]1C(=O)N[C@@H](CO)C(N)=O` [Example 121] yielded an Emax [1, 4] of 92.8%, an EC50 ([1]; hGIPR EC50, nM (SEM, n), incubated at 37° C.) of 0.0271 nM and an EC50 [2, 5] greater than 9950 nM. The EC50 [3, 6] was 8.95 nM.
